According to patent US20260000694A1, “METHODS AND COMPOSITIONS RELATED TO PREBIOTIC FORMULATIONS USEFUL IN PROMOTING UROGENITAL HEALTH” (KIMBERLY-CLARK WORLDWIDE, INC., priority 2022, published 2026):
Where “and” joins values, the source holds several entries; their conditions need not be identical. Equal values may be shown once.

Key:
Format in all cases: cell-based
[1] = tested on: Lactobacillus crispatus KC18-1173-1; test: Competition (co-culture) assay: recovery of L. crispatus after exposure to prebiotics; conditions: 48 hours, one value per replicate; for L. crispatus Δ on MRS: change vs start, background growth in media without prebiotic subtracted, co-culture; for L. crispatus Recovered on MRS: co-culture with S. anginosus in API 50 CHL media with prebiotic (% w/v in label), anaerobic 37° C.
Description: (§1) The methods used herein were adapted from Vongsa et al. The method used in this particular example is as follows: • 1. A stock was created using a single prebiotic, a prebiotic mixture, or the positive control (glucose) in API 50 CHL media (Biomerieux, Marcy-l'Étoile, France). API 50 CHL media containing minimal amounts of carbon for growth and bromocresol purple as a pH indicator of fermentation. The stock media was filter-sterilized with a 0.22 μM filter and store at 4-6° C. • 2. From a freezer stock, the bacteria were subcultured twice into De Man, Rogosa, and Sharpe (MRS) broth (BD Difco, Becton Dickinson, Franklin Lakes, NJ) and incubated at 37° C. anaerobically overnight until stationary. • 3. The second MRS broth subculture was plated onto an MRS agar plate for Lactobacillus crispatus KC18-1173-1 or blood agar for Streptococcus anginosus KC18-1131-3B and incubated at 37° C. anaerobically overnight until stationary. • 4. A bacterial suspension was created for each bacterium using a sterile tipped swab to transfer colonies into API suspension media (Biomerieux, Marcy-l'Étoile, France) to reach the turbidity of a 2 MacFarland standard. • 5. The starting culture was enumerated. • 6. 9.8 mL of the prebiotic media was added into a sterile 15 mL conical tube. • 7. 100 μL of each prepared bacterial suspension was added to the media, and it was incubated anaerobically at 37° C. for 48 hours. • 8. 100 μL were harvested from each tube containing the bacteria and prebiotic media, it was serially diluted, and plated onto MRS agar and tryptic soy agar (TSA). • 9. The bacteria were enumerated on MRS agar (both L. crispatus and S. anginosus). Small colonies were counted as S. anginosus, and large colonies were counted as L. crispatus. • 10. S. anginosus was enumerated on TSA plates. […] Background growth of bacteria in the negative control (CHL media without prebiotics) was subtracted from the growth recovered in the presence of the prebiotic mixture. • 12. Statistical analysis was performed using Student's t-test. The significance level was set at p<0.05.

[2] = tested on: Streptococcus anginosus KC18-1131-3B; test: Competition (co-culture) assay: recovery of S. anginosus after exposure to prebiotics; conditions: 48 hours, one value per replicate; for S. anginosus Δ on MRS / S. anginosus Δ on TSA: change vs start, background growth in media without prebiotic subtracted, co-culture; for S. anginosus Recovered on MRS / S. anginosus Recovered on TSA: co-culture with L. crispatus in API 50 CHL media with prebiotic (% w/v in label), anaerobic 37° C.
Description: as §1

[3] = tested on: Lactobacillus crispatus KC18-1173-1 to Streptococcus anginosus KC18-1131-3B; test: Competition (co-culture) assay: ratio of L. crispatus to S. anginosus recovered; conditions: average CFU/mL L. crispatus on MRS divided by average CFU/mL S. anginosus on TSA, 48 hours
Description: as §1

SMILES | L. crispatus Δ on MRS [1] | L. crispatus Recovered on MRS [1] | S. anginosus Δ on MRS [2] | S. anginosus Δ on TSA [2] | S. anginosus Recovered on MRS [2] | S. anginosus Recovered on TSA [2] | Ratio (L. crispatus/S. anginosus) [3]
OC[C@H]1O[C@@](CO)(OC[C@@]2(O[C@H]3O[C@H](CO)[C@@H](O)[C@H](O)[C@H]3O)O[C@H](CO)[C@@H](O)[C@@H]2O)[C@@H](O)[C@@H]1O [1-Kestose (2.0), 1-Kestose] | 2.59 Log CFU/mL and 3.60 Log CFU/mL and 2.30 Log CFU/mL and 1.95 Log CFU/mL and 2.74 Log CFU/mL | 7.95 Log CFU/mL and 8.90 Log CFU/mL and 8.00 Log CFU/mL and 7.65 Log CFU/mL and 8.16 Log CFU/mL | −6.61 Log CFU/mL and −6.08 Log CFU/mL and −5.03 Log CFU/mL and −3.64 Log CFU/mL and −3.63 Log CFU/mL | −3.74 Log CFU/mL and −6.45 Log CFU/mL and −4.15 Log CFU/mL and −4.00 Log CFU/mL (2×) | 0.00 Log CFU/mL (2×) and 1.70 Log CFU/mL and 2.70 Log CFU/mL and 2.30 Log CFU/mL | 2.74 Log CFU/mL and 0.00 Log CFU/mL and 2.54 Log CFU/mL and 2.40 Log CFU/mL and 1.70 Log CFU/mL | 976,001
OC[C@@H](O)[C@@H](O[C@@H]1O[C@H](CO)[C@H](O)[C@H](O)[C@H]1O)[C@H](O)[C@@H](O)CO [D-Lactitol (2.0), D-Lactitol] | 0.77 Log CFU/mL and 0.66 Log CFU/mL | 5.90 Log CFU/mL and 6.74 Log CFU/mL | 0.75 Log CFU/mL and 0.69 Log CFU/mL | 0.58 Log CFU/mL and 0.52 Log CFU/mL | 7.45 Log CFU/mL and 7.54 Log CFU/mL | 7.43 Log CFU/mL and 7.65 Log CFU/mL | 0
OC[C@H]1O[C@@H](O[C@@H]2[C@@H](CO)OC(O)(CO)[C@H]2O)[C@H](O)[C@@H](O)[C@H]1O (mixture of isomers) [Lactulose (2.0), Lactulose] | 2.38 Log CFU/mL and 2.80 Log CFU/mL and 2.58 Log CFU/mL and 2.60 Log CFU/mL and 2.69 Log CFU/mL | 7.74 Log CFU/mL and 8.10 Log CFU/mL and 8.28 Log CFU/mL and 8.30 Log CFU/mL and 8.11 Log CFU/mL | −6.73 Log CFU/mL and −2.23 Log CFU/mL and −2.53 Log CFU/mL and −6.61 Log CFU/mL and −6.08 Log CFU/mL | −3.85 Log CFU/mL and −2.17 Log CFU/mL and −3.70 Log CFU/mL and −3.74 Log CFU/mL and −3.67 Log CFU/mL | 0.00 Log CFU/mL (3×) and 4.11 Log CFU/mL and 3.40 Log CFU/mL | 2.85 Log CFU/mL and 4.23 Log CFU/mL and 2.00 Log CFU/mL and 2.74 Log CFU/mL and 2.78 Log CFU/mL | 37,556
CO[C@H]1O[C@H](CO)[C@@H](O)[C@H](O)[C@H]1O [α-Methyl-D-Glucoside (2.0), α-Methyl-D-Glucoside] | 1.90 Log CFU/mL and 1.39 Log CFU/mL and 0.70 Log CFU/mL | 7.20 Log CFU/mL and 6.52 Log CFU/mL and 6.78 Log CFU/mL | −0.33 Log CFU/mL and 0.45 Log CFU/mL and 0.55 Log CFU/mL | 0.34 Log CFU/mL and 0.62 Log CFU/mL and 0.41 Log CFU/mL | 5.60 Log CFU/mL and 7.15 Log CFU/mL and 7.40 Log CFU/mL | 6.04 Log CFU/mL and 7.47 Log CFU/mL and 7.54 Log CFU/mL | 0
OC[C@@H](O)[C@@H](O[C@H]1O[C@H](CO)[C@@H](O)[C@H](O)[C@H]1O)[C@H](O)[C@@H](O)CO [Maltitol (2.0), Maltitol] | 0.35 Log CFU/mL and −0.08 Log CFU/mL | 5.48 Log CFU/mL and 6.00 Log CFU/mL | −0.12 Log CFU/mL and −0.37 Log CFU/mL | 0.41 Log CFU/mL and 0.47 Log CFU/mL | 6.58 Log CFU/mL and 6.48 Log CFU/mL | 7.26 Log CFU/mL and 7.60 Log CFU/mL | 0
O=C(CO)[C@@H](O)[C@H](O)[C@H](O)CO[C@H]1O[C@H](CO)[C@@H](O)[C@H](O)[C@H]1O [Palatinose ™ (2.0), 6-O-α-D-glucopyranosyl-D-fructose] | 2.10 Log CFU/mL and 2.30 Log CFU/mL and 2.77 Log CFU/mL and 3.24 Log CFU/mL and 1.90 Log CFU/mL | 7.93 Log CFU/mL and 8.00 Log CFU/mL and 8.19 Log CFU/mL and 8.37 Log CFU/mL and 7.98 Log CFU/mL | −1.83 Log CFU/mL and −2.08 Log CFU/mL and −2.03 Log CFU/mL and −1.82 Log CFU/mL and −1.69 Log CFU/mL | −1.48 Log CFU/mL and −2.41 Log CFU/mL and −2.00 Log CFU/mL and −2.42 Log CFU/mL and 2.39 Log CFU/mL | 4.78 Log CFU/mL and 4.00 Log CFU/mL and 4.70 Log CFU/mL and 4.88 Log CFU/mL and 5.16 Log CFU/mL | 5.00 Log CFU/mL and 4.04 Log CFU/mL and 4.70 Log CFU/mL and 4.53 Log CFU/mL and 4.74 Log CFU/mL | 2,681
